PMC10381309 (Journal of Fungi, 2023)
Values after ≈ are worked out from the molar mass of the structure shown.

Columns and labels:
Type in all cases: cell-based
[1] = tested on: Fonsecaea pedrosoi (CFP 00791); experiment: NIH Clinical Collection screening for antifungal activity (growth inhibition, OD 530 nm); details: 10 µM; CFP00791 Fonsecaea pedrosoi isolate; 72–96 h; read-out: % Growth Inhibition
Experimental: These substances are part of the NIH Roadmap Molecular Libraries Screening Centers Network screening library, a collection of chemically diverse substances in Phase I-III clinical trials. Each substance was initially diluted to 1 mM in DMSO and stored at −20 °C until use. […] The final DMSO concentration corresponded to 0.5% v/v. The inoculum was prepared according to the protocol for filamentous fungi proposed by the European Committee on Antimicrobial Susceptibility Testing—EUCAST, with minor modifications. […] After growth, conidia were suspended in 3 mL of sterile distilled water with 0.1% Tween 20, vortexed, and the concentration adjusted to the 0.5 McFarland scale. The suspension was then diluted 1:10 in order to obtain a final working inoculum at 2–5 × 10^5 CFU/mL. Next, 100 µL of the inoculum was added to each well and the plates incubated at 35 °C for 72–96 h. Negative and positive controls consisted of culture medium alone and drug-free culture medium with the fungal inoculum previously described, respectively. Plates were read using a microplate reader (Epoch, Biotek, Wenusky, VT, USA) with a 530 nm filter to obtain the optical density. All plates were also visually read to confirm the equipment data. A calculation was performed to obtain the percentage of inhibition of fungal growth, according to the formula: (1 − (OD1/OD2)) × 100, where OD1 = optical density of the fungus in the presence of the drug; and OD2 = optical density of the growth control drug-free well.

VERO cells (ATCC CCL-81) = experiment: Cytotoxicity of hit drugs, MTT, 24 h; details: African green monkey
Experimental: VERO cells (ATCC® CCL-81, a kidney tissue derived from a normal adult African green monkey) were cultured in 199 medium with Earle’s salts supplemented with 100 U/mL of penicillin–100 µg/mL of streptomycin (Cultilab LTDA, São Paulo, Brazil) and 10% fetal bovine serum (FBS, Cultilab LTDA, Brazil) in an incubator at 37 °C with 5% CO2. Cells were subcultured in 25 or 75 cm^2 culture flasks once a week and the culture medium was also changed once a week. The cells used in the experiments were from passages 10 to 29 [42]. Cytotoxicity assays to assess cell viability were performed in 96-well plates with 5 × 10^4 cells/well that were exposed to hit drug solutions for 24 h at 37 °C in an incubator with 5% CO2. […]. A solution of 10% Tween 80 solution was used as the positive cellular death control. Wells with VERO cells receiving only the culture medium with or without 1% DMSO were also included as positive cellular growth controls.
The 3-(4,5-dimethylthiazol-2-yl)-2,5-diphenyltetrazolium bromide (MTT, Sigma-Aldrich®, USA) reagent dissolved in PBS, pH 7.4, was used to check cell viability. Results were read at 492 nm on a Thermo Scientific® Multiskan microplate spectrophotometer reader and expressed as percent cell viability in the culture medium after addition of a 10% Tween 80 solution.

[2] = tested on: Phialophora verrucosa (CFP 00937); experiment: MIC determination (EUCAST, minor modifications); details: P. verrucosa
Experimental: (§1) Minimum inhibitory concentrations (MICs) were determined using the method proposed by the European Committee on Antimicrobial Susceptibility Testing (EUCAST), with minor modifications. Hit drugs were serially diluted (80 μM to 0.15625 μM) in RPMI 1640 (twice concentrated, pH 7; supplemented with 2% glucose) buffered with MOPS in 96-well plates. The inoculums of all strains were prepared following the EUCAST protocol. Plates were incubated at 35 °C for 72–96 h. The MIC of the NCC substances was determined as the lowest concentration capable of inhibiting 100% of fungal growth when compared to the growth control well. MIC values were determined in duplicate.

[3] = tested on: Exophiala heteromorpha (ATCC 28180); experiment: MIC determination (EUCAST, minor modifications); details: E. heteromorpha
Experimental: as §1

[4] = tested on: Exophiala dermatitidis (ATCC 28869); experiment: MIC determination (EUCAST, minor modifications); details: E. dermatitidis
Experimental: as §1

[5] = tested on: Rhinocladiela similis (CFP 00790); experiment: MIC determination (EUCAST, minor modifications); details: R. similis
Experimental: as §1

[6] = tested on: Fonsecaea monophora (CFP 00911); experiment: MIC determination (EUCAST, minor modifications); details: F. monophora
Experimental: as §1

[7] = tested on: Cladophialophora carrionii (CFP 00910); experiment: MIC determination (EUCAST, minor modifications); details: C. carrionii
Experimental: as §1

[8] = tested on: Fonsecaea pedrosoi (CFP 00791); experiment: MIC determination (EUCAST, minor modifications); details: F. pedrosoi
Experimental: as §1

[9] = tested on: Fonsecaea nubica (CFP 00912); experiment: MIC determination (EUCAST, minor modifications); details: F. nubica
Experimental: as §1

[10] = tested on: Phialophora verrucosa (CFP 00937); experiment: Minimum fungicidal concentration determination; details: P. verrucosa
Experimental: (§2) Minimum fungicidal concentration (MFC) was determined in triplicate by transferring a 5 μL aliquot from each well without fungal growth of the microdilution plates used for MIC determination, as described above, onto 2% glucose Sabouraud agar (Sigma Chemical Corporation). The MFC was determined as the lowest drug concentration without fungal growth on Sabouraud agar after five days of incubation at 35 °C. When the MFC/MIC ratio of a hit drug was 1 or 2, the substance was considered fungicidal against the pathogen. If this ratio was greater than 2, the hit drug was considered to be fungistatic.

[11] = tested on: Exophiala heteromorpha (ATCC 28180); experiment: Minimum fungicidal concentration determination; details: E. heteromorpha
Experimental: as §2

[12] = tested on: Exophiala dermatitidis (ATCC 28869); experiment: Minimum fungicidal concentration determination; details: E. dermatitidis
Experimental: as §2

[13] = tested on: Rhinocladiela similis (CFP 00790); experiment: Minimum fungicidal concentration determination; details: R. similis
Experimental: as §2

[14] = tested on: Fonsecaea monophora (CFP 00911); experiment: Minimum fungicidal concentration determination; details: F. monophora
Experimental: as §2

[15] = tested on: Fonsecaea pedrosoi (CFP 00791); experiment: Minimum fungicidal concentration determination; details: F. pedrosoi
Experimental: as §2

[16] = tested on: Fonsecaea nubica (CFP 00912); experiment: Minimum fungicidal concentration determination; details: F. nubica
Experimental: as §2

[17] = tested on: Cladophialophora carrionii (CFP 00910); experiment: Minimum fungicidal concentration determination; details: C. carrionii
Experimental: The MFC was determined as the lowest drug concentration without fungal growth on Sabouraud agar after five days of incubation at 35 °C.

- MIC ([2]; Phialophora verrucosa, 100% growth inhibition, read-out: MIC): 5 µM (≈ 1.48 µg/mL)
- MIC ([3]; Exophiala heteromorpha, ATCC28180, 100% growth inhibition, read-out: MIC): 5 µM (≈ 1.48 µg/mL)
- MIC ([4]; Exophiala dermatitidis, ATCC28869, 100% growth inhibition, read-out: MIC): 20 µM (≈ 5.91 µg/mL)
- MIC ([5]; 100% growth inhibition, read-out: MIC): 5 µM (≈ 1.48 µg/mL)
- MIC ([6]; Fonsecaea monophora, 100% growth inhibition, read-out: MIC): 2.5 µM (≈ 0.738 µg/mL)
- MIC ([7]; Cladophialophora carrionii, 100% growth inhibition, read-out: MIC): 2.5 µM (≈ 0.738 µg/mL)
- MIC ([8]; Fonsecaea pedrosoi, 100% growth inhibition, read-out: MIC): 5 µM (≈ 1.48 µg/mL)
- MIC ([9]; Fonsecaea nubica, 100% growth inhibition, read-out: MIC): 5 µM (≈ 1.48 µg/mL)
SMILES: COC(=O)Nc1nc2ccc(C(=O)c3ccccc3)cc2[nH]1 [Mebendazole]
- inhibition at 10 µM [1]: 83%
- CC50 (translated from >100 μg/mL) (VERO cells (ATCC CCL-81)): ~338.98 µM
- Selectivity Index (SI) ([2]; CC50 Vero 24 h / MIC): 67.79
- Selectivity Index (SI) ([3]; CC50 Vero 24 h / MIC): 67.79
- Selectivity Index (SI) ([4]; CC50 Vero 24 h / MIC): 16.94
- Selectivity Index (SI) ([5]; CC50 Vero 24 h / MIC): 67.79
- Selectivity Index (SI) ([6]; CC50 Vero 24 h / MIC): 135.59
- Selectivity Index (SI) ([7]; CC50 Vero 24 h / MIC): 135.59
- Selectivity Index (SI) ([8]; CC50 Vero 24 h / MIC): 67.79
- Selectivity Index (SI) ([9]; CC50 Vero 24 h / MIC): 67.79
- MFC:MIC Ratio [10]: 2
- fungicidal or fungistatic (MFC/MIC ratio) [10]: fungicidal (When the MFC/MIC ratio of a hit drug was 1 or 2, the substance was considered fungicidal)
- MFC ([10]; Phialophora verrucosa, read-out: MFC): 10 µM (≈ 2.95 µg/mL)
- MFC:MIC Ratio [11]: >16
- MFC ([11]; Exophiala heteromorpha, ATCC28180, read-out: MFC): > 80 µM
- MFC:MIC Ratio [12]: >4
- MFC ([12]; Exophiala dermatitidis, ATCC28869, read-out: MFC): > 80 µM
- MFC:MIC Ratio [13]: >16
- MFC ([13]; read-out: MFC): > 80 µM
- MFC:MIC Ratio [14]: 32
- MFC ([14]; Fonsecaea monophora, read-out: MFC): 80 µM (≈ 23.6 µg/mL)
- MFC:MIC Ratio [15]: 1
- fungicidal or fungistatic (MFC/MIC ratio) [15]: fungicidal (When the MFC/MIC ratio of a hit drug was 1 or 2, the substance was considered fungicidal)
- MFC ([15]; Fonsecaea pedrosoi, read-out: MFC): 5 µM (≈ 1.48 µg/mL)
- MFC:MIC Ratio [16]: >16
- MFC ([16]; Fonsecaea nubica, read-out: MFC): > 80 µM
- MFC:MIC Ratio [17]: 1
- fungicidal or fungistatic (MFC/MIC ratio) [17]: fungicidal (When the MFC/MIC ratio of a hit drug was 1 or 2, the substance was considered fungicidal)
- MFC ([17]; Cladophialophora carrionii, read-out: MFC): 2.5 µM (≈ 0.738 µg/mL)
